Measured values from patent publication US8349793B2, “Method for treatment of inflammatory disease and disorder” (Heal0r, Ltd., priority 2010, dated 2013).
Where no end group is shown, it is not given here. The star is where a group is joined. Palmitoyl = CCCCCCCCCCCCCCCC(=O)*; Myristoyl = CCCCCCCCCCCCCC(=O)*

Experiments:
[1] = system: keratinocytes; test: Keratinocyte migration; format: cell-based; parameters: concentration or dose not given beside the values
[2] = system: keratinocytes; test: Keratinocyte proliferation in vitro (PCNA); format: cell-based, Balb/c mice; settings: concentration not given
Description: Primary murine keratinocytes from 2 days old Balb/c mice were grown for 5 days to reach full confluence in 0.05 mM Ca^2+ MEM medium. HO/02/10 treatment (10^−6M and 10^−5M) was applied 6 hours prior to induction of differentiation. Cells were harvested, run on SDS PAGE gel and immunoblotted using anti-PCNA antibodies. In addition, C57Black mice, 8-10 weeks of age were subjected to full thickness wounding in the upper back area to induce epidermis remodeling and differentiation. Following the wounding, mice were treated daily with HO/02/10 (ranged 40-4000 mg/kg/day) for 7 days. At the termination point, mice were euthanized and upper back skin samples were fixed in 4% paraformaldehyde solution, following paraffin embedding and slide preparation. Skin samples were then subjected to immunohistochemical staining utilizing PCNA antibody. (n=18).
(§1) FIGS. 7 and 8 presents a summary of expression data in keratinocytes utilizing various peptide PKCα inhibitors: MPDY-1 (SEQ ID NO: 21) as well as data for the peptide PKCα inhibitors AIP-1 (SEQ ID NO: 3), AIP-2 (SEQ ID NO: 20), AWOT-1 (SEQ ID NO: 5) and PPDY-1 (SEQ ID NO: 22). […] FIG. 8 presents a summary of expression data in keratinocytes for various peptide PKCα inhibitors.

[3] = system: keratinocytes; test: Keratinocyte differentiation markers (Filaggrin, Loricrin, Keratin 1); format: cell-based, C57BL/6J mice; settings: concentration: EPIP1 and DAP1 1 μg/ml, 10 μg/ml, EPIP2 10 μg/ml
Description: Keratinocytes derived from C57BL/6J mice were incubated in medium containing Ca^2+ to induce keratinocytes differentiation. Cells were then incubated in the presence of […] (1 μg/ml). Cells were harvested, run on SDS PAGE gel and immunoblotted using anti-Filaggrin (Fil), anti Loricrin (Lor) and anti-Keratin 1 (K1) antibody.
as §1

[4] = system: splenocytes; test: Cytokine secretion in splenocytes stimulated with LPS or TNFα (ELISA); format: cell-based, B6 mice
Description: Inhibitory effect on activated splenocytes: Splenocytes were derived from B6 mice. […] Medium containing secreted cytokines was collected after 48 hr and analyzed using ELISA.

[5] = system: keratinocytes; test: Cytokine secretion in keratinocytes stimulated by LPS, TNFα or IL-17 (ELISA); format: cell-based, BALB/C mice; settings: for cytokine secretion in keratinocytes: stimulated by LPS, TNFα, or IL-17; for cytokine secretion from LPS and TNFα activated keratinocytes: FIGS. 19 to 23; for cytokine secretion from IL-17A activated keratinocytes: FIGS. 24 to 27
Description: To determine their effects, keratinocytes were derived from newborn BALB/C mice skin. The cells were incubated for 5 days in 24 wells plate. Cells were then incubated with PBS−/− as control or stimulated by LPS, TNFα, or IL-17. PKCα inhibitors were added as indicated. Medium containing secreted cytokines was collected after 48 hr and analyzed using ELISA. FIG. 40 is a tabular summary of cytokine secretion.
PKCδactivators were also shown to have an anti-inflammatory effect on keratinocytes and splenocytes. Keratinocytes were derived from newborn BALB/C mice skin. The cells were incubated for 5 days in 24 wells plate. Cells were then incubated with PBS−/− as control or stimulated by LPS or TNFα. The PKCδ inhibitor DAP-1 (SEQ ID NO: 16) was added. Medium containing secreted cytokines was collected after 48 hr and analyzed using ELISA. FIG. 35 is a tabular summary showing cytokine secretion in splenocytes stimulated with LPS. […] Cytokine secretion in keratinocytes stimulated by TNFα: following stimulation with 35 ng/ml TNFα. And treatment with 10 μg/ml of DAP-1, the cytokine levels of IL-1α, G-CSF, MIP-2 and KC were reduced by 95%, 70%, 20% and 30# respectively.
PKCε inhibitors were also shown to have an anti-inflammatory effect on keratinocytes. Keratinocytes were derived from newborn BALB/C mice skin. The cells were incubated for 5 days in 24 wells plate. Cells were then incubated with PBS−/− as control or stimulated by LPS or TNFα. The PKCεinhibitors EPIP-1 (SEQ ID NO: 20), EPIP-2 (SEQ ID NO: 21), or EPIP-4 (SEQ ID NO: 23) were added. Medium containing secreted cytokines was collected after 48 hr and analyzed using ELISA. FIGS. 36-39 show the results for secretion of specific cytokines while Table 8 summarizes cytokine secretion for the various PKCε inhibitors: […]

[6] = TNFα 25 ng/ml, peptide 1 μg/ml, 48 hr
[7] = TNFα 25 ng/ml, peptide 10 μg/ml, 48 hr
[8] = LPS 1 [μg/ml], peptide [1 g/ml], 48 hr
[9] = TNF [35 ng/ml], peptide [1 g/ml], 48 hr
[10] = keratinocytes, LPS (1 μg/ml) (EPIP4: printed 1 mg/ml), peptide concentration not given
[11] = keratinocytes, TNFa stim (35 ng/ml), 1 μg/ml of peptide (given for EPIP1, EPIP2, not for EPIP4), reduction printed with or without minus sign
[12] = keratinocytes, upon LPS and TNFa activation
[13] = LPS 1 [μg/ml], peptide [10 μg/ml], 48 hr
[14] = TNF [35 ng/ml], peptide [10 μg/ml], 48 hr
[15] = Splenocytes, Induction: LPS (1 μg/ml) (given for DAP1 only), peptide (10 μg/ml)
[16] = Keratinocytes, Induction: TNFα (35 ng/ml), peptide (10 μg/ml)
[17] = keratinocytes, 35 ng/ml TNFα, 10 μg/ml of DAP-1

## LEPEAAAAAAGK [EPIP-4]
[1]
  Migration, Induces: (200%)
[2]
  Proliferation markers (PCNA): Induces
[3]
  Differentiation markers: granular differentiation: No influence
  Differentiation markers: spainous differentiation: reduces spainous
[4]; [6]
  G-CSF (% reduction in secretion): 45%
  IFN-γ (% reduction in secretion): 25%
  IL-1a (% reduction in secretion): 10%
  IL-6 (% reduction in secretion): 15%
  IL-10 (% reduction in secretion): 30%
  IL-17 (% reduction in secretion): 85%
[4]; [7]
  G-CSF (% reduction in secretion): 20%
  IFN-γ (% reduction in secretion): 55%
  IL-10 (% reduction in secretion): 10%
  IL-17 (% reduction in secretion): 90%
  IP-10 (% reduction in secretion): 15%
[5]; [8]
  G-CSF secretion (change): −75%
  IL-6 secretion (change): −55%
  IP-10 secretion (change): −60%
  KC secretion (change): −100%
[5]; [9]
  G-CSF secretion (change): IL-6 (−100%), G-CSF (−100%), IP-10
  IL-6 secretion (change): IL-6 (−100%), G-CSF (−100%), IP-10
  IP-10 secretion (change): (−80%)
[5]; [10]
  IL-6 secretion (change): Reduces proinflammatory IL-6 (−55%),
  IP-10 secretion (change): −60%
  KC secretion (change): −100%
[5]; [11]
  Reduces Chemokines IP 10: Chemokines IP 10 (−80%)
  Reduces proinflammatory cytokines IL-6: proinflammatory cytokines IL-6(−100%),

## Pro-Ala-Trp-His-Asp (PAWHD) [EPIP-3]
[1]
  Migration, Induces: (200%)
[2]
  Proliferation markers (PCNA): Induces
[3]
  Differentiation markers: granular differentiation: Reduces granular
[5]; keratinocytes, IL-17 activation
  cytokine secretion, comparison with MPDY-1: IL-17: similar effect to MPDY-1
[5]; [12]
  pro-inflammatory cytokines, chemokines (effect): Reduces pro-inflammatory cytokines,
  pro-inflammatory cytokines, chemokines, comparison with MPDY-1: chemokines, better than MPDY-1 upon

## EAVSLKPT [EPIP-1]
[1]
  Migration, Induces: (200%)
[2]
  Proliferation markers (PCNA): Induces
[3]
  Differentiation markers: granular differentiation: Reduces granular
  Differentiation markers: spainous differentiation: Reduces granular
[5]; [13]
  G-CSF secretion (change): −70%
  IL-6 secretion (change): −55%
  IP-10 secretion (change): −60%
  KC secretion (change): −100%
[5]; [14]
  G-CSF secretion (change): −85%
  IL-6 secretion (change): −95%
  IP-10 secretion (change): (−45%)
[5]; [10]
  G-CSF secretion (change): −70%
  IL-6 secretion (change): −55%
  IP-10 secretion (change): −60%
  KC secretion (change): −100%
[5]; [11]
  Reduces Chemokines IP 10: Chemokines IP 10 (45%)
  Reduces proinflammatory cytokines IL-6: 95%
  Reduces systemic cytokines G-SCF: −85%

## TLNPQWES [AIP-1]
[5]; 48 hr
  cytokine secretion in keratinocytes: effective in decreasing cytokine secretion

## Myristoyl-Phe-Ala-Arg-Lys-Gly-Ala-Leu (Myristoyl-FARKGAL) [AIP-2]
[5]
  cytokine secretion from LPS and TNFα activated keratinocytes: decrease
  cytokine secretion from IL-17A activated keratinocytes: decrease
[5]; 48 hr
  cytokine secretion in keratinocytes: effective in decreasing cytokine secretion

## MRAAEAAAAEPM [DAP-1]
[1]
  Migration, Induces: (200%)
[2]
  Proliferation markers (PCNA): Reduces
[3]
  Differentiation markers: granular differentiation: induces
[4]; [15]
  Reduces Chemokine: KC: KC (32%), as
  reduces proinflamatory cytokine: IL-1α: IL-1α (45%),
  reduces systemic cytokine: G-SCF: (40%),
[4]; Splenocytes, Induction: LPS (1 μg/ml), DAP1 (1 μg/ml)
  induces antiinflamatory cytokine: IL 10: IL 10 (200%)
[4]; Splenocytes, Induction: LPS (1 μg/ml), DAP1 (10 μg/ml)
  Reduces TNFa expression: expression (28%).
[4]; stimulated with LPS
  inflammatory cytokine secretion in splenocytes: significantly decease
[5]; [16]
  Reduces Chemokines: KC: KC (32%), MIP2
  Reduces Chemokines: MIP2: (30%)
  Reduces proinflamatory cytokine: IL-1a: (40%)
  Reduces proinflamatory cytokine: IL-6: (20%) and IL-1a
  Reduces systemic cytokine GM-CSF: GM-CSF (50%)
[5]; [17]
  cytokine level of G-CSF reduced by: 70%
  cytokine level of IL-1α reduced by: 95%
  cytokine level of KC reduced by: 30
  cytokine level of MIP-2 reduced by: 20%
[5]; stimulated by LPS or TNFα
  inflammatory cytokine secretion in keratinocytes: significantly decease

## FARKGALRQ [AWOT]
[5]
  cytokine secretion from LPS and TNFα activated keratinocytes: decrease
  cytokine secretion from IL-17A activated keratinocytes: decrease
[5]; 48 hr
  cytokine secretion in keratinocytes: effective in decreasing cytokine secretion

## Myristoyl-Thr-Arg-Lys-Arg-Gln-Arg-Ala-Met-Arg-Arg-Arg-Val-His-Gln-Ile-Asn-Gly (Myristoyl-TRKRQRAMRRRVHQING) [MPE-1]
[4]; [6]
  G-CSF (% reduction in secretion): 40%
  IL-6 (% reduction in secretion): 25%
  IL-17 (% reduction in secretion): 90%
[4]; [7]
  G-CSF (% reduction in secretion): 15%
  IL-17 (% reduction in secretion): 90%

## HFEDWIDHFEDWID [DAP-3]
[1]
  Migration, Induces: (200%)
[2]
  Proliferation markers (PCNA): induces
[3]
  Differentiation markers: granular differentiation: induces
[4]; Splenocytes, DAP3 (10 μg/ml)
  Reduces Chemokines: MIP2: MIP2 (25%)
[4]; [15]
  reduces proinflamatory cytokine: IL-1α: IL-1α (45%),
  reduces systemic cytokine: G-SCF: G-SCF (25%),
[5]; [16]
  Reduces Chemokines: KC: KC (25%),
  Reduces proinflamatory cytokine: IL-1a: (50%)
  Reduces proinflamatory cytokine: IL-6: (45%) and IL-1a
  Reduces systemic cytokine G-SCF: SCF (25%),
  Reduces systemic cytokine GM-CSF: SCF (25%),

## Palmitoyl-Phe-Ala-Arg-Lys-Gly-Ala-Leu-Arg-Gln (Palmitoyl-FARKGALRQ) [PPDY-1]
[5]; 48 hr
  cytokine secretion in keratinocytes: effective in decreasing cytokine secretion
